Results taken from patent US4333930A, “Orthoarylideneaminophenethylamines and pharmaceutical compositions” (priority 1980, dated 1982).
Like-named read-outs stand apart in the source and are kept apart here.

Tests used:
[1] = test system: trembling induced by oxotremorine; assay: Antagonism of trembling induced by oxotremorine, Table 7; type: in vivo; settings: po, read-out: % of inhibition of trembling induced by oxotremorine
Description: (§1) The psychotropic profile of the present invention products has been characterized with the animals in numerous tests some of whose results are shown hereinafter. The products of the invention were always administered orally in 6% gum base.
(§2) Certain tests made it possible to show antidepressive activities. These are tests of antagonism to the effects of reserpine, oxotremorine (according to Everett G. M. et al, Science, 1956, 124, 79 and Levy J. et al, Therapie 1965, 20, 265) and to despair (according to Porsolt P. D. et al, Eur. J. Pharmacol., 1978, 47, 379-91).
% of inhibition of trembling induced by
oxotremorine as a function of the dose
(§3) administered expressed in mg/kg

[2] = test system: ptosis induced by reserpine; assay: Antagonism of ptosis induced by reserpine, Table 6; type: in vivo; settings: po, read-out: % of inhibition of ptosis induced by reserpine
Description: as §1, §2
% of inhibition of ptosis induced by reserpine
as a function of the dose administered orally

[3] = Oral toxicity (mortality) in the mouse, Table 1; type: in vivo; settings: mouse, in vivo, po, Swiss mice, 14 days
Experimental: (§4) The mortality percentages caused by the products of the present invention administered orally to Swiss mice are shown in Table 1. The animals, free of specific pathological organism were housed in an air conditioned room from 24 to 48 hours before the start of the experiments. They were divided up into lots of 5 males and 5 females. With the animals unfed for 24 hours, the substances were administered intragastrically in a base of 6% gum arabic in a volume equal to 0.1 ml for 10 g of animal weight. The mortality was recorded at 14 days.
(§5) % of mortality as a function of the dose

[4] = test system: number of escapes the animal made in 5 minutes; assay: Escape test, Table 3; type: in vivo, mouse; settings: 5 min, read-out: % of activity (variation of the number of escapes)
Description: The products of the invention were always administered orally in 6% gum base.
The notation NS signifies that the difference between the results noted for the product and the results noted for the excipient alone is not significant at the threshold 0.05 according to the Student t Test.

[5] = test system: number of displacements of the animal; assay: Four plates test (anxiolytic activity), Table 5; type: in vivo; settings: oral, mouse
Description: as §1
A certain number of products manifest an anxiolytic activity evidenced in the test with the four plates with the mouse (Table 5).
% of increase in the number of displacements of the
animal as a function of the dose expressed in mg/kg

phenylbenzoquinone (PBQ) = assay: Analgesic activity using phenylbenzoquinone (PBQ) as noxious agent, Table 2; type: in vivo, male Swiss mouse; settings: Mus musculus; for inhibition in vivo at 100 mg/kg: read-out: % of analgesic activity, 100 mg/kg, male Swiss mouse, PBQ; for inhibition in vivo at 200 mg/kg: read-out: % of analgesic activity, 200 mg/kg, male Swiss mouse, PBQ
Experimental: The analgesic activity was determined with the male Swiss mouse using phenylbenzoquinone (PBQ) (a variation of the method of Siegmund et al, Proc. Soc. Exp. Med., […], 95, 729-31) as the noxious agent. Twenty-eightminutes after having administered the test products in a suspension in a 6% gum base, the PBQ solution was injected. The mice were then observed ca. 5 mn. for the next five minutes.
% of analgesic activity as a function of
the dose expressed in mg/kg

[6] = test system: salivation induced by pilocarpine; assay: Inhibition of salivation induced by pilocarpine (anticholinergic activity), Table 9; type: in vivo; settings: oral
Description: as §1
Certain products manifest an anticholinergic activity evidenced in the inhibition test of salivation induced by pilocarpine (Table 9).
% of inhibition of salivation induced by
pilocarpine as a function of the dose
as §3

despair = assay: Test of despair (Porsolt), Table 8; type: in vivo; settings: oral
Description: as §1, §2
Test of despair: % of antagonism as a function
of the dose administered orally and expressed

catalepsy = assay: Catalepsy; type: in vivo; settings: 400 and 600 mg/kg
[7] = test system: stereotype induced by apomorphine; assay: Antagonism of the stereotype induced by apomorphine, Table 4; type: in vivo
Description: as §1
% of activity vis-a-vis the stereotype
induced by apomorphine as a function of the
administered dose expressed in mg/kg

Swiss mice = assay: Oral toxicity (mortality) in the mouse, Table 1; type: in vivo; settings: 1000 mg/kg, 14 days, 20160 min
Experimental: as §4, §5

`CN(C)CCc1ccccc1N=Cc1cccnc1` [COR 01 184] showed a change in vivo at 25 mg/kg [1] of -20%, a change in vivo at 50 mg/kg [1] of 0% and a change in vivo at 100 mg/kg [1] of -22%. It also gave a change in vivo at 200 mg/kg [1] of -17%, a change in vivo at 50 mg/kg [2] of -13% and a change in vivo at 100 mg/kg [2] of -39%. For the same compound, the change in vivo at 200 mg/kg [2] was -34%, the mortality at 336 h ([3]; 1500 mg/kg) was 0% and the mortality at 336 h ([3]; 2000 mg/kg) was 30%. For the same compound, the change in vivo at 5 mg/kg ([4]; 5 mg/kg, oral, mouse, 5 minutes) was -34%, the change in vivo at 10 mg/kg ([4]; 10 mg/kg, oral, mouse, 5 minutes) was -26% and the change in vivo at 25 mg/kg ([4]; 25 mg/kg, oral, mouse, 5 minutes) was -23%. It also gave a change in vivo at 50 mg/kg ([4]; 50 mg/kg, oral, mouse, 5 minutes) of -34%, a change in vivo at 100 mg/kg ([4]; 100 mg/kg, oral, mouse, 5 minutes) of -47% and a change in vivo at 200 mg/kg ([4]; 200 mg/kg, oral, mouse, 5 minutes) of -46%. For the same compound, the “% of increase in the number of displacements of the animal” value (shortened to “% of increase”) ([5]; 1.5 mg/kg) was “+89%”, the “% of increase” value ([5]; 3 mg/kg) was “+73%” and the “% of increase” value ([5]; 5 mg/kg) was “+56%”. For the same compound, the “% of increase” value ([5]; 10 mg/kg) was “+61%”, the inhibition in vivo at 50 mg/kg (phenylbenzoquinone (PBQ); read-out: % of analgesic activity, 50 mg/kg, male Swiss mouse, PBQ) was 34% and the inhibition in vivo at 100 mg/kg (phenylbenzoquinone (PBQ)) was 44%. For the same compound, the inhibition in vivo at 200 mg/kg (phenylbenzoquinone (PBQ)) was 55%, the “% of inhibition of salivation induced by pilocarpine” value (shortened to “% of inhibition … by pilocarpine”) ([6]; 200 mg/kg) was -23% and the “Test of despair: % of antagonism” value (despair; 100 mg/kg) was -20%. For the same compound, the “Test of despair: % of antagonism” value (despair; 200 mg/kg) was -18%.
With `CN(C)CCc1cc2c(cc1N=CC=Cc1ccccc1)OCO2` [COR 01 176] the change in vivo at 50 mg/kg [1] was -40%, the change in vivo at 100 mg/kg [1] was -50% and the change in vivo at 200 mg/kg [1] was -20%. The catalepsy (catalepsy) was “slight catalepsy”, the mortality at 336 h ([3]; 1000 mg/kg) was 0% and the change in vivo at 0.5 mg/kg ([4]; Mus musculus, po) was -29%. The change in vivo at 1 mg/kg ([4]; Mus musculus, po) was -40%, the change in vivo at 3 mg/kg ([4]; Mus musculus, po) was -39% and the change in vivo at 5 mg/kg ([4]; Mus musculus, po) was -33%. It also gave a change in vivo at 25 mg/kg ([4]; Mus musculus, po) of -32%, a change in vivo at 50 mg/kg ([4]; Mus musculus, po) of -37% and a change in vivo at 100 mg/kg ([4]; Mus musculus, po) of -33%. For the same compound, the change in vivo at 200 mg/kg ([4]; Mus musculus, po) was -43%, the “% of increase” value ([5]; 3 mg/kg) was “+101%” and the “% of increase” value ([5]; 5 mg/kg) was “+117%”. For the same compound, the “% of increase” value ([5]; 10 mg/kg) was “+72%”, the “% of increase” value ([5]; 20 mg/kg) was “+72%” and the “% of increase” value ([5]; 25 mg/kg) was “+66%”. For the same compound, the inhibition in vivo at 100 mg/kg (phenylbenzoquinone (PBQ)) was 23%, the inhibition in vivo at 200 mg/kg (phenylbenzoquinone (PBQ)) was 39% and the “% of activity vis-a-vis the stereotype induced by apomorphine” value ([7]; 200 mg/kg, oral) was -64%. For the same compound, the “antagonism vis-a-vis the stereotype with apomorphine” value ([7]; in words) was “manifest an antagonism”.
With `CN(C)CCc1cc2c(cc1N=Cc1cccnc1)OCO2` [COR 01 170, 6-dimethylaminoethyl N-(pyridylidene-3)-1,3-benzodioxole-5-ylamine] the change in vivo at 50 mg/kg [1] was -40%, the change in vivo at 100 mg/kg [1] was -50% and the change in vivo at 200 mg/kg [1] was -78%. The mortality at 336 h ([3]; 1500 mg/kg) was 100%, the “% of mortality” value (Swiss mice) was 0% and the change in vivo at 100 mg/kg ([4]; Mus musculus, po) was -32%. The change in vivo at 200 mg/kg ([4]; Mus musculus, po) was -59%, the “% of increase” value ([5]; 25 mg/kg) was “+18%” and the “% of increase” value ([5]; 40 mg/kg) was “+57%”. For the same compound, the “% of increase” value ([5]; 50 mg/kg) was “+36%”, the “% of increase” value ([5]; 60 mg/kg) was “+69%” and the “% of increase” value ([5]; 75 mg/kg) was “+72%”. The inhibition in vivo at 100 mg/kg (phenylbenzoquinone (PBQ)) was 30%, the inhibition in vivo at 200 mg/kg (phenylbenzoquinone (PBQ)) was 39% and the “% of inhibition … by pilocarpine” value ([6]; 100 mg/kg) was -18%. For the same compound, the “% of inhibition … by pilocarpine” value ([6]; 200 mg/kg) was -57%, the “Test of despair: % of antagonism” value (despair; 50 mg/kg) was -39% and the “Test of despair: % of antagonism” value (despair; 100 mg/kg) was -39%. The “Test of despair: % of antagonism” value (despair; 200 mg/kg) was -33%.
